Experimental data reported in patent publication US20190002942A1, “ANTIBIOTIC FIIRV 104/18 COMPLEX AND THE ISOLATED INDIVIDUAL FACTORS THEREOF” (Fondazione Istituto Insubrico di Ricerca per la Vita, priority 2015, published 2019).
Converted amounts (≈) assume the structure as drawn. Read-outs that look alike come from different tables or passages of the source.

How the values were obtained:
L145 C. albicans = experiment: MIC, broth microdilution (CLSI); type: cell-based, Candida albicans; conditions: L145 C. albicans, RPMI, inoculum 10^4 CFU/mL
Method: (§1) Antimicrobial activity of the antibiotic FIIRV 104/18 complex is determined by the broth microdilution method according to the procedures published by the Clinical and Laboratory Standards Institute (CLSI), formerly the National Committee for Clinical Laboratory Standards (NCCLS) (document M07-A9). Inocula are: 2-5×10^5 CFU/mL for Gram positive and Gram negative bacteria; 10^4 CFU/mL for Candida albicans.
(§2) The media used are: cation adjusted Mueller Hinton broth (CAMHB) for Staphylococci, Enterococci, Moraxella catarrhalis, Escherichia coli; Todd Hewitt broth (THB) for Streptococci; RPMI 1640 Medium for C. albicans. The effect of 30% bovine serum is determined under the same experimental conditions.
(§3) Cultures are incubated at 35° C. in air. After 18-24 hours visual readings are performed and MICs determined. The MIC (Minimal Inhibitory Concentration) is defined as the lower concentration of antibiotic at which there is no visible growth. The strains used are clinical isolates or strains from American Type Culture Collection (ATCC). Individual factors of antibiotic FIIRV 104/18 are dissolved in DMSO to obtain a 1000 μg/mL stock solution, and subsequently diluted in water to obtain working solution.

[1] = test system: L819 S. aureus Smith ATCC19636; experiment: MIC, broth microdilution (CLSI); type: cell-based, Staphylococcus aureus; conditions: Staphylococcus aureus, read-out: MIC
Method: (§4) Inocula are: 2-5×10^5 CFU/mL for Gram positive and Gram negative bacteria; 10^4 CFU/mL for Candida albicans.
(§5) The effect of 30% bovine serum is determined under the same experimental conditions.
(§6) Cultures are incubated at 35° C. in air. After 18-24 hours visual readings are performed and MICs determined. The MIC (Minimal Inhibitory Concentration) is defined as the lower concentration of antibiotic at which there is no visible growth. The strains used are clinical isolates or strains from American Type Culture Collection (ATCC).

L100 S. aureus ATCC 6538 = experiment: MIC, broth microdilution (CLSI); type: cell-based; conditions: Staphylococcus aureus, ATCC6538; L100 S. aureus ATCC 6538; CAMHB; read-out: MIC
Method: as §4, §5, §6

L1400 S. aureus MRSA = experiment: MIC, broth microdilution (CLSI); type: cell-based; conditions: Staphylococcus aureus; L1400 S. aureus MRSA; CAMHB; read-out: MIC
Method: as §4, §5, §6

L1577 S. epidermidis = experiment: MIC, broth microdilution (CLSI); type: cell-based; conditions: Staphylococcus epidermidis; L1577 S. epidermidis; CAMHB; read-out: MIC
Method: as §4, §5, §6

[2] = test system: L1729 S. haemolyticus MDR; experiment: MIC, broth microdilution (CLSI); type: cell-based; conditions: Staphylococcus haemolyticus; L1729 S. haemolyticus MDR; CAMHB; read-out: MIC
Method: as §4, §5, §6

L1730 S. haemolyticus = experiment: MIC, broth microdilution (CLSI); type: cell-based; conditions: Staphylococcus haemolyticus; L1730 S. haemolyticus; CAMHB; read-out: MIC
Method: as §4, §5, §6

L3030 A. baumannii = experiment: MIC, broth microdilution (CLSI); type: cell-based; conditions: Acinetobacter baumannii; L3030 A. baumannii; read-out: MIC
Method: as §4, §5, §6

L3294 M. catarrhalis = experiment: MIC, broth microdilution (CLSI); type: cell-based; conditions: Moraxella catarrhalis; L3294 M. catarrhalis; CAMHB; read-out: MIC
Method: as §4, §5, §6

L44 S. pneumoniae = experiment: MIC, broth microdilution (CLSI); type: cell-based; conditions: Streptococcus pneumoniae; L44 S. pneumoniae; THB; read-out: MIC
Method: as §4, §5, §6

L47 E. coli, SKF 12140 = experiment: MIC, broth microdilution (CLSI); type: cell-based; conditions: Escherichia coli; L47 E. coli, SKF 12140; CAMHB; read-out: MIC
Method: as §4, §5, §6

L49 S. pyogenes C203 = experiment: MIC, broth microdilution (CLSI); type: cell-based; conditions: Streptococcus pyogenes; L49 S. pyogenes C203; THB; read-out: MIC
Method: as §4, §5, §6

L559 E. faecalis = experiment: MIC, broth microdilution (CLSI); type: cell-based; conditions: Enterococcus faecalis; L559 E. faecalis; CAMHB; read-out: MIC
Method: as §4, §5, §6

L568 E. faecium = experiment: MIC, broth microdilution (CLSI); type: cell-based; conditions: Enterococcus faecium; L568 E. faecium; CAMHB; read-out: MIC
Method: as §4, §5, §6

L569 E. faecium VanA = experiment: MIC, broth microdilution (CLSI); type: cell-based, Enterococcus faecium; conditions: Enterococcus faecium, L569 E. faecium VanA, read-out: MIC
Method: as §4, §5, §6

L560 E. faecalis VanA = experiment: MIC, broth microdilution (CLSI); type: cell-based, Enterococcus faecalis; conditions: Enterococcus faecalis, L560 E. faecalis VanA, read-out: MIC
Method: as §4, §5, §6

L2048 B. cenocepacia = experiment: MIC, broth microdilution (CLSI); type: cell-based; conditions: Burkholderia cenocepacia; L2048 B. cenocepacia; read-out: MIC
Method: as §1, §2, §3

[3] = test system: Gram-positive susceptible, resistant and multi-resistant pathogenic bacteria; experiment: Growth inhibition of Gram-positive bacteria (summary); type: cell-based; conditions: Gram positive bacteria: Staphylococci incl. MRSA and MR coagulase-negative, Streptococci, Enterococci incl. VanA
Method: as §1, §2, §3

## C[C@@H]1[C@H](O)[C@@H](C)/C=C/C=C/C=C/C=C/C=C/C=C/C=C/[C@H](O[C@@H]2O[C@H](C)[C@@H](O)[C@H](N)[C@@H]2O)C[C@@H]2O[C@](O)(C[C@@H](O)C[C@@H](O)[C@H](O)CC[C@@H](O)C[C@@H](O)CC(=O)O[C@H]1C)C[C@H](O)[C@H]2C(=O)O [AmB, Amphotericin B, reference compound]
L145 C. albicans
  MIC: 1 µg/mL (≈ 1.08 µM)

## COC(=O)c1c(C)cc2c(c1O)[C@]1(O)C(=O)c3cc4c(c(O)c3C(=O)[C@]1(OC)[C@H](O)C2)C(=O)C=C(NC1O[C@@H](C)[C@H](O)[C@@H](O)[C@H]1OC)C4=O (stereo partly drawn) [F683, 6R,6aS,14aR-methyl-11,6,8,14a-tetrahydroxy-11[(2S,3R,4R,5R,6S)-4,5-dihydroxy-3-methoxy-6-methyltetrahydro-2H-pyran-2-ylamino]-6a-methoxy-3-methyl-7,9,12,14-tetraoxo-5,6,6a,7,9,12,14,14a-octahydrobenzo[α]tetracene-2-carboxylate]
[1]; ATCC19636, L819 S. aureus Smith ATCC19636, CAMHB
  MIC: 0.5 µg/mL (≈ 0.731 µM)
[1]; ATCC19636, L819 S. aureus Smith, +30% SB (bovine serum)
  MIC: 8 µg/mL (≈ 11.7 µM)
L100 S. aureus ATCC 6538
  MIC: 2 µg/mL (≈ 2.93 µM)
L1400 S. aureus MRSA
  MIC: 0.5 µg/mL (≈ 0.731 µM)
L1577 S. epidermidis
  MIC: 0.5 µg/mL (≈ 0.731 µM)
[2]
  MIC: 0.5 µg/mL (≈ 0.731 µM)
L1730 S. haemolyticus
  MIC: 0.5 µg/mL (≈ 0.731 µM)
L3030 A. baumannii
  MIC: > 128 µg/mL
L3294 M. catarrhalis
  MIC: 0.5 µg/mL (≈ 0.731 µM)
L44 S. pneumoniae
  MIC: 0.125 µg/mL (≈ 0.183 µM)
L47 E. coli, SKF 12140
  MIC: > 128 µg/mL
L49 S. pyogenes C203
  MIC: 0.125 µg/mL (≈ 0.183 µM)
L559 E. faecalis
  MIC: 8 µg/mL (≈ 11.7 µM)
L568 E. faecium
  MIC: 16 µg/mL (≈ 23.4 µM)
L569 E. faecium VanA; +30% SB (bovine serum)
  MIC: > 32 µg/mL
L569 E. faecium VanA; CAMHB
  MIC: 16 µg/mL (≈ 23.4 µM)
L560 E. faecalis VanA; +30% SB (bovine serum)
  MIC: 32 µg/mL (≈ 46.8 µM)
L560 E. faecalis VanA; CAMHB
  MIC: 8 µg/mL (≈ 11.7 µM)
L2048 B. cenocepacia
  MIC: > 128 µg/mL
L145 C. albicans; Candida albicans, read-out: MIC
  MIC: > 128 µg/mL
[3]
  antibacterial activity (in words): very high antibacterial activity
